What was measured:
Format in all cases: cell-based, human
[1] = test system: SDH-B deficient GIST metastases to the peritoneum; test: Decitabine treatment of GIST tissue in ex vivo perfusion system (H&E, IHC, live imaging); conditions: 0-10 μM in perfusate; tissues harvested after 4 days
Description: The system of FIG. 7A is also well-suited as a translational tool and/or as a tool for enrollment into clinical trials, especially where pre-clinical models are otherwise non-existent. For example, SDH-B deficient GIST is a rare subtype driven by epigenetic silencing of the gene, unresponsive to conventional agents (imatinib) and with no available cell lines or mouse models. Tissue from a patient with SDH-B deficient GIST was utilized in the system of FIG. 7A to investigate decitabine, a potential treatment option being evaluated for this population. Using early demethylation markers as a read-out, changes associated with decitabine treatment at physiologic and supraphysiologic doses were not detected. […] Sample platforms of tissue from the patient with GIST metastases to the peritoneum were cultured in perfusate supplemented with 0-10 μM decitabine. […] Stack projections of live images of control sample at day 0 and day 3 as well as a sample treated with 5 μM decitabine with fluorophore-conjugated antibodies against CD45 and CD117 also show no changes in the decitabine-treated tissue.
In any of the above discussed examples, tissue from system 700 was subject to similar histopathologic evaluations. […] Viability on H&E was defined as preservation of normal tissue architecture, intact nuclei, and normal population of immune cells (qualitative and quantitative). […]

[2] = test system: resected cholangiocarcinoma tumor and liver capsule; test: Tivozanib treatment of cholangiocarcinoma tissue in ex vivo perfusion system (H&E, Ki67)
Method: In another example, the system of FIG. 7A was used to identify a new target in patients with cholangiocarcinoma. The target is a kinase, SLK, that activates AKT signaling leading to aggressive tumor biology and poor patient outcomes. Although no SLK-specific inhibitor exists, the kinome profiles of available kinase inhibitors was evaluated, and tivozanib was identified. Using tissue from a patient with cholangiocarcinoma in the system of FIG. 7A, tivozanib was evaluated. […] Resected cholangiocarcinoma tumor as well as liver capsule mounted on sample platforms treated with 0-1 mg/ml tivozanib were prepared for IHC, stained with H&E and Ki67 antibody. Cells in control and drug-treated platforms were evaluated for viability, degeneration and necrosis.
In any of the above discussed examples, tissue from system 700 was subject to similar histopathologic evaluations. For example, the tissues were preserved in the 10% neutral buffered formalin, then through the tissue processor and embedded in paraffin and cut at 5-micron sections for hematoxylin and eosin (H&E) slides. Slides were prepared for H&E staining and immunohistochemistry, respectively to detect CD3 (T cells), CD68 (macrophages), Ki-67 and MIBI (mitotic activity). CD3 and CD68 were predilute antibodies as purchased, while Ki-67 and (MIB-1) were run at 1:200 dilution. All stains were done on an automated immunostainer (Ventana Benchmark Ultra). Viability on H&E was defined as preservation of normal tissue architecture, intact nuclei, and normal population of immune cells (qualitative and quantitative). Each sample was compared against day 0 control samples. Ki67 or stains were performed to assess proliferative activity of the tumor cells. Samples stained with Ki67 or MIB1 on day 4 were compared to day 0 samples to confirm no change in proliferative activity.

[3] = test system: sidewall peritoneum from a gastric cancer patient (gastric adenocarcinoma); test: Check-point inhibitor evaluation in ex vivo perfusion system, gastric cancer tissue (2-photon imaging); conditions: incubated for 2 days; Alexa488CD44/Alexa594CD45 antibodies
Method: (§1) The system of FIG. 7A is well-suited to evaluate immunotherapeutic agents. Given that check-point inhibitors have made their way into the clinic for seemingly most solid tumors, such inhibitors were evaluated in the system of FIG. 7A using a tumor from a patient with gastric adenocarcinoma and a tumor from a patient with colorectal adenocarcinoma. Neither of these histologies have significant response rates to check-point inhibitors outside of select genomic subpopulations, which was not applicable to either patient in this example. FIGS. 12A-12D illustrates results of this example.
(§2) In the top panel, sample platforms with sidewall peritoneum from a gastric cancer patient were incubated with immune checkpoint inhibitor pembrolizumab for 2 days followed by Alexa488CD44/Alexa594CD45 antibodies. Maximum projections of 2-photon images illustrate the intimate contact between CD45-positive cells and the cancer cells. The bottom panel provides a timeseries montage of images taken from liver capsule tissue mounted on sample platforms from a colorectal cancer patient with liver metastases incubated with 5 μg/ml of pembrolizumab for 4 hr. […]
(§3) Image acquisition was performed on an inverted Leica SP8 setup using multiphoton excitation at 870 nm together with a 25×/0.95 W VISIR lens. […] Images were analyzed using ImageJ software. […]

[4] = test system: liver capsule tissue from a colorectal cancer patient with liver metastases (colorectal adenocarcinoma); test: Check-point inhibitor evaluation in ex vivo perfusion system, colorectal cancer tissue (timeseries imaging); conditions: 5 μg/ml for 4 hr
Method: as §1, §2, §3

Nc1ncn([C@H]2C[C@H](O)[C@@H](CO)O2)c(=O)n1 [decitabine]
methylation status of GIST (SDHB, 5-HMC, 5-MC IHC) [1]: no effect
proliferation activity of GIST (Ki67) [1]: no effect

COc1cc2nccc(Oc3ccc(NC(=O)Nc4cc(C)on4)c(Cl)c3)c2cc1OC [tivozanib]
cell death in liver metastases (viability, degeneration, necrosis) ([2]; 0-1 mg/ml, FIGS. 12C-12D): induces cell death
tumor cell effect at physiologic doses ([2]; physiologic doses): tumor cell degeneration
tumor cell effect at supraphysiologic concentrations ([2]; supraphysiologic concentrations): frank necrosis

pembrolizumab
binding of immune cells (CD45-positive) to cancer cells [3]: stimulates binding of immune cells to cancer cells
immune cell engagement with tumor cells [4]: Immune cell engagement was observed
tumor cell lysis / apoptosis of CD44-positive cancer cells bound by CD45-positive cells [4]: captured tumor cell lysis

Reference: US20240209302A1, “SYSTEMS, METHODS, AND DEVICES FOR EX VIVO ANALYSIS OF RESECTED TISSUE SAMPLES” (The United States of America,as represented by the …, priority 2020, published 2024)
